For six compounds, TGI results are on record in PubChem BioAssay (NCI).

Some test systems named below: HL-60(TB) leukemia; SK-OV-3 ovarian; LOX IMVI melanoma; OVCAR-8 ovarian; SK-MEL-5 melanoma; SK-MEL-28 melanoma; SN12C renal; 786-0 renal; SK-MEL-2 melanoma; NCI-H226 lung; K-562 leukemia; NCI/ADR-RES ovarian; SNB-19 CNS; SF-295 CNS; ACHN renal; A549 NSCLC; MDA-MB-231 breast; HCT-116 colon; UACC-62 melanoma; A498 renal.
Common to all, as to experiment: growth of human tumour cells (NCI), 48 h

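Each compound was tested at five concentrations against cells in 96-well plates for 48 hours. TGI: concentration producing complete growth inhibition.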

As to `O=c1[nH]c(N/N=C\C(=N/Nc2nc3ccccc3c(=O)[nH]2)C(O)C(O)C(O)CO)nc2ccccc12` (stereo not given), the TGI in the assay on HL-60(TB) leukemia, with SK-OV-3 ovarian, in the assay with LOX IMVI melanoma, in the assay on OVCAR-8 ovarian, with SK-MEL-5 melanoma and in the assay with SK-MEL-28 melanoma was greater than 100 µM throughout. Further, the TGI in the assay with SN12C renal, with 786-0 renal, in the assay with SK-MEL-2 melanoma, in the assay with NCI-H226 lung, in the assay on K-562 leukemia and in the assay on NCI/ADR-RES ovarian was greater than 100 µM in each case. The TGI in the assay on SNB-19 CNS, with SF-295 CNS, with ACHN renal, with A549 NSCLC, in the assay with MDA-MB-231 breast and in the assay with HCT-116 colon was greater than 100 µM in each case. The TGI with UACC-62 melanoma and in the assay on A498 renal was greater than 100 µM throughout.
With `O=S1(=O)c2ccccc2C(Nc2ccccc2)N1c1ccccc1` (stereo not given), the TGI in the assay on HL-60(TB) leukemia, with SK-OV-3 ovarian, in the assay on LOX IMVI melanoma, in the assay with OVCAR-8 ovarian, in the assay with SK-MEL-5 melanoma and with SK-MEL-28 melanoma was greater than 100 µM each time. In addition, the TGI with SN12C renal, in the assay with 786-0 renal, with SK-MEL-2 melanoma, in the assay on NCI-H226 lung, in the assay on K-562 leukemia and in the assay on NCI/ADR-RES ovarian was greater than 100 µM each time. The TGI in the assay with SF-295 CNS, in the assay on ACHN renal, in the assay with A549 NSCLC, with MDA-MB-231 breast, in the assay on HCT-116 colon and in the assay on UACC-62 melanoma was greater than 100 µM each time. In the assay on A498 renal, this compound had a TGI greater than 100 µM.
On to `CCN1c2cc(Br)cc3[nH]c(=O)n(c23)CCC1C` (stereo not given), for which the TGI in the assay on HL-60(TB) leukemia came to 35.8 µM; in the assay on SK-OV-3 ovarian, 49.4 µM; with LOX IMVI melanoma it was 24.7 µM; with OVCAR-8 ovarian, 30.9 µM; in the assay on SK-MEL-5 melanoma, 30 µM; in the assay with SK-MEL-28 melanoma, 65.8 µM. Also, the TGI is 30.6 µM with SN12C renal; 28.1 µM in the assay on 786-0 renal; 31.8 µM in the assay with SK-MEL-2 melanoma; 37.8 µM with NCI-H226 lung; greater than 100 µM in the assay with K-562 leukemia; 23 µM in the assay with NCI/ADR-RES ovarian. Moreover, the TGI with SNB-19 CNS was greater than 100 µM; in the assay on SF-295 CNS it was 39.6 µM; in the assay with ACHN renal it was 63.5 µM; in the assay with A549 NSCLC, 35.1 µM; in the assay on MDA-MB-231 breast it was 43.1 µM; with HCT-116 colon, 28.3 µM. Besides, the TGI in the assay on UACC-62 melanoma was found to be 24.6 µM; with A498 renal, 29 µM.
Take `Cn1c(=O)c2nc3c(=O)n(C)c(=O)n(CC(N)=O)c3nc2n(C)c1=O`: the TGI in the assay on HL-60(TB) leukemia, with SK-OV-3 ovarian, in the assay on LOX IMVI melanoma, in the assay on OVCAR-8 ovarian, with SK-MEL-5 melanoma and in the assay with SK-MEL-28 melanoma was greater than 100 µM in each case. Moreover, the TGI with SN12C renal, with 786-0 renal, in the assay with SK-MEL-2 melanoma, in the assay with NCI-H226 lung, with K-562 leukemia and in the assay with NCI/ADR-RES ovarian was greater than 100 µM in each case. Also, the TGI in the assay on SNB-19 CNS, with SF-295 CNS, in the assay with ACHN renal, in the assay on MDA-MB-231 breast, in the assay with HCT-116 colon and in the assay on UACC-62 melanoma was greater than 100 µM in each case. The TGI in the assay with A498 renal is greater than 100 µM.
Consider `CC(C)(Oc1ccc(Cl)cc1)C(=O)N(C(=O)N1CCCCC1)c1ccccc1`, for which the TGI came to 21 µM with HL-60(TB) leukemia; 40.4 µM in the assay on SK-OV-3 ovarian; 26.6 µM in the assay with LOX IMVI melanoma; 31.4 µM with OVCAR-8 ovarian; 24.2 µM in the assay with SK-MEL-5 melanoma; 44.6 µM with SK-MEL-28 melanoma. Further, the TGI is 47 µM in the assay with SN12C renal; 27.6 µM in the assay with 786-0 renal; 32 µM in the assay with SK-MEL-2 melanoma; 51 µM in the assay with NCI-H226 lung; greater than 100 µM in the assay on K-562 leukemia; 37.4 µM with NCI/ADR-RES ovarian. The TGI in the assay on SNB-19 CNS was found to be 42.5 µM; in the assay on ACHN renal, 28.1 µM; in the assay on MDA-MB-231 breast it was 25.5 µM; in the assay with HCT-116 colon, 21.2 µM; with UACC-62 melanoma it was 27.5 µM; in the assay on A498 renal, 32.8 µM.
For `CC(C)(C)C1CCC2c3c([nH]c4ccccc34)C3C(=O)N(c4ccccc4[N+](=O)[O-])C(=O)C3C2C1` (stereo not given), the TGI with HL-60(TB) leukemia was 27.5 µM; in the assay on SK-OV-3 ovarian, greater than 100 µM; in the assay on LOX IMVI melanoma, 31.4 µM; in the assay with OVCAR-8 ovarian, greater than 100 µM; in the assay on SK-MEL-5 melanoma it was 26.7 µM; in the assay on SN12C renal, 64.3 µM. Also, the TGI in the assay with 786-0 renal is 28.9 µM; with SK-MEL-2 melanoma, 35.6 µM; in the assay with NCI-H226 lung, 57.2 µM; in the assay on K-562 leukemia, 27.8 µM; in the assay on NCI/ADR-RES ovarian, greater than 100 µM; in the assay with SNB-19 CNS it was 82.5 µM. For the same compound, the TGI in the assay with SF-295 CNS is 31.2 µM; in the assay on ACHN renal it was 61.3 µM; in the assay with A549 NSCLC, 33.9 µM; with MDA-MB-231 breast, 27.2 µM; with HCT-116 colon it was 22.7 µM; with UACC-62 melanoma, 28.2 µM. In addition, the TGI with A498 renal is 36.5 µM.
